Reference: patent US10676501B2, “Hydrogel materials incorporating eluting ceragenin compound” (BRIGHAM YOUNG UNIVERSITY, priority 2011, dated 2020)
Converted amounts (≈) assume the structure as drawn.

Assays:
[1] = Elution of CSA-138 from contact lenses without bacteria, quantified by scintillation counting; format: physicochemical
Experimental: To decrease the detection limit for CSA-138, we prepared a radiolabeled version of CSA-138 (CSA-138T2), incorporated it into contact lenses, and quantified its elution from lenses using scintillation counting.
Lenses containing 1% CSA-138 were stored in 0.5 mL phosphate buffered saline (PBS) prior to testing. One set of lenses was autoclaved for 45 min before elution studies were performed. For elution studies, lenses were suspended in 2 ml aliquots of PBS, 10% TSB growth medium, 10% TSB growth medium containing 10^6 CFU of Staphylococcus aureus, or 10% TSB growth medium containing 10^6 CFU of Pseudomonas aeruginosa. Corresponding aliquots were exchanged every 24 h, including bacterial inocula. Samples were removed every 24 h and analyzed for the presence of CSA-138 using scintillation counting. A standard curve was generated to correlate counts per minute to concentration of CSA-138. All experiments were performed in triplicate.

[2] = Elution of CSA-138 from contact lens hydrogel, quantified by LC/MS; format: physicochemical; conditions: lenses with CSA-138 incorporated at 1%; LC/MS detection limit about 2 μg/ml
Experimental: To better understand the mechanism by which ceragenin compounds can be eluted from a hydrogel to prevent bacterial colonization, we determined the rate at which CSA-138 elutes from a hydrogel suitable for use in contact lenses. To quantify the amount of ceragenin eluting from the hydrogel, we used LC/MS using a mass-labeled internal standard. However, this method only gave detection limits of about 2 μg/ml, and we were able to effectively kill bacteria at constant elution rates below the detection limit.

P. aeruginosa [3] = conditions: elution from lenses, inocula 10^6 CFU; cited from earlier work
S. aureus [4] = assay: MIC against S. aureus; format: cell-based
P. aeruginosa [5] = assay: MIC against P. aeruginosa; format: cell-based
S. aureus [6] = conditions: elution from lenses, inocula 10^6 CFU, consecutive days; cited from earlier work

| SMILES | elution profile in 10% TSB in PBS ([1]; 10% TSB in PBS, compared with PBS (FIG. 5)) | initial amount of material that eluted ([1]; lenses autoclaved 45 min before the study, compared with non-autoclaved (FIG. 4)) | elution on the first day ([1]; lenses containing 1% CSA-138 in 2 ml PBS, day 1 (FIG. 3)) | time until elution fell below detection limits [2] | duration for which colonization is prevented (P. aeruginosa [3]) [days] | MIC (S. aureus [4]) [µg/mL] | MIC (P. aeruginosa [5]) [µg/mL] | duration for which colonization is prevented (S. aureus [6]) [days] |
| --- | --- | --- | --- | --- | --- | --- | --- | --- |
| CCCCCCCCNCCC[C@@H](C)[C@H]1CC[C@H]2[C@@H]3[C@H](OCCCN)C[C@@H]4C[C@H](OCCCN)CC[C@]4(C)[C@H]3C[C@H](OCCCN)[C@]12C [CSA-13] | elution decreased |  |  |  |  |  |  |  |
| CCCCCCCCCCCCCNCCC[C@@H](C)[C@H]1CC[C@H]2[C@@H]3[C@H](OCCCN)C[C@@H]4C[C@H](OCCCN)CC[C@]4(C)[C@H]3C[C@H](OCCCN)[C@]12C [CSA-138] |  | decreased somewhat | about 2.2 μg/ml | five | 19 | 0.5 (≈ 0.669 µM) | 1.0 (≈ 1.34 µM) | 30 |
